Numbers after ± are expanded uncertainties.
Conditions: Gas, Capillary tube (Ostwald / Ubbelohde) method

[HH] [hydrogen]
Conditions	viscosity [mPa·s]
294.1 K, 34430 kPa	0.00964 ± 0.00059
294.52 K, 4680 kPa	0.00901 ± 0.00043
294.91 K, 10160 kPa	0.00911 ± 0.00045
295 K, 81640 kPa	0.01139 ± 0.00093
295.01 K, 52730 kPa	0.01021 ± 0.00072
295.02 K, 99320 kPa	0.01196 ± 0.0011
333.28 K, 4940 kPa	0.00983 ± 0.00046
333.3 K, 48480 kPa	0.01055 ± 0.0007
333.31 K, 69110 kPa	0.01122 ± 0.00085
333.31 K, 94920 kPa	0.01217 ± 0.001
333.32 K, 9480 kPa	0.0099 ± 0.00048
400.1 K, 28190 kPa	0.01115 ± 0.00062
400.11 K, 4830 kPa	0.01109 ± 0.00052
400.11 K, 9190 kPa	0.01127 ± 0.00054
400.11 K, 49790 kPa	0.01163 ± 0.00075
400.12 K, 71210 kPa	0.01217 ± 0.00089

N#N [nitrogen]
Conditions	viscosity [mPa·s]
297.22 K, 31330 kPa	0.02799 ± 0.0013
297.23 K, 40300 kPa	0.03044 ± 0.0015
297.24 K, 50620 kPa	0.03457 ± 0.0017
297.25 K, 24520 kPa	0.02464 ± 0.0011
297.25 K, 85020 kPa	0.0474 ± 0.0023
297.26 K, 70280 kPa	0.04283 ± 0.0021
297.3 K, 570 kPa	0.01774 ± 0.00078
297.32 K, 2900 kPa	0.01836 ± 0.00081
297.32 K, 4960 kPa	0.01892 ± 0.00084
297.33 K, 9020 kPa	0.0199 ± 0.0009
297.45 K, 60740 kPa	0.03906 ± 0.0019
297.46 K, 95040 kPa	0.05291 ± 0.0026
333.14 K, 10530 kPa	0.02163 ± 0.00098
333.16 K, 15340 kPa	0.0222 ± 0.001
333.22 K, 24490 kPa	0.02538 ± 0.0012
333.3 K, 34970 kPa	0.02945 ± 0.0014
333.42 K, 48850 kPa	0.03239 ± 0.0016
333.51 K, 74270 kPa	0.03968 ± 0.002
333.59 K, 95150 kPa	0.04811 ± 0.0024
400.07 K, 7230 kPa	0.02297 ± 0.001
400.07 K, 10740 kPa	0.02334 ± 0.001
400.07 K, 15630 kPa	0.02427 ± 0.0011
400.07 K, 25910 kPa	0.02639 ± 0.0012
400.07 K, 35280 kPa	0.0284 ± 0.0014
400.07 K, 47240 kPa	0.03189 ± 0.0015
400.07 K, 65020 kPa	0.03573 ± 0.0018
400.07 K, 95070 kPa	0.04385 ± 0.0022
499.24 K, 30120 kPa	0.02951 ± 0.0014
499.24 K, 48890 kPa	0.03275 ± 0.0016
499.24 K, 69570 kPa	0.03658 ± 0.0018
499.24 K, 94610 kPa	0.04084 ± 0.0021
499.43 K, 10560 kPa	0.02699 ± 0.0012

— the NIST ThermoML archive (doi:10.1007/s10765-011-0999-6)
